Assay results: PubChem BioAssay AID1996
Values after ≈ are worked out from the molar mass of the structure shown.

Settings: buffer; pH 7.4; 200.0 µM
Cc1ccc(S(=O)(=O)N2CC(O)CC2C(=O)O)cc1 (centres undefined) gave a solubility kinetic of over 42.8 µg/mL.
Compound Cc1ccc(NC(=O)N[C@H](C(=O)O)C(C)C)c(C)c1 has a solubility kinetic of over 39.6 µg/mL.
Work on CCC(CC)c1nnc(NC(=O)c2cccc(S(=O)(=O)N3CCOCC3)c2)s1 yielded a solubility kinetic of over 63.7 µg/mL.
For CCOC(=O)c1ccc2[nH]c3c(c2c1)CCCC3NC=O (centres undefined), the solubility kinetic was over 42.9 µg/mL.
CN(C)CCCNc1oc(/C=C/c2ccccc2)nc1C#N showed a solubility kinetic of over 44.5 µg/mL.
Compound O=C(COC(=O)c1ccncc1)c1ccccc1 has a solubility kinetic of over 36.2 µg/mL.
With O=C(/C=C/c1ccc(F)cc1)N1CCc2ccccc2C1 the solubility kinetic was 12.5 µg/mL (≈ 44.4 µM).
Work on C=CCN1C(=O)c2ccc(C(=O)N3CCC(C(N)=O)CC3)cc2C1=O yielded a solubility kinetic of 47.9 µg/mL (≈ 140 µM).
CCS(=O)(=O)Nc1cccc(-c2cn3c(n2)SCC3)c1 gave a solubility kinetic of over 46.4 µg/mL.
O=C(O)c1ccc(Cn2cc(/C=C\[N+](=O)[O-])c3ccccc32)o1 gave a solubility kinetic of over 46.8 µg/mL.
In the case of NC(=O)C1CCN(C(=O)C2CC(=O)N(c3ccc(F)cc3)C2)CC1 (centres undefined), the solubility kinetic is reported as 26.5 µg/mL (≈ 79.5 µM).
Cl.O=C(Nc1cccc(F)c1)[C@@H]1CCCN1 gave a solubility kinetic of over 36.7 µg/mL.
In the case of COC(=O)n1c(=O)oc2ccc(S(=O)(=O)N3CCCCC3)cc21, the solubility kinetic is reported as over 51.1 µg/mL.
Work on O=C1CC(Cc2ccccc2)C(=O)N1c1ccccn1 (centres undefined) yielded a solubility kinetic of over 39.9 µg/mL.
For Cc1cn2c(nc1=O)OC1CC2OC1CO (centres undefined), the solubility kinetic was over 33.6 µg/mL.
Compound CCCOc1ccc(C2NC(=O)CCC2[N+](=O)[O-])cc1 (centres undefined) has a solubility kinetic of over 41.7 µg/mL.
For O=C(NC1CCCCCCC1)c1ccc(F)cc1, the solubility kinetic was 25.8 µg/mL (≈ 103 µM).
With Cc1cc(NC(=O)CSc2nc3c(C)c(C)ccc3cc2C)no1 the solubility kinetic was under 0.2 µg/mL.
In the case of CCOc1ccc(NC(=O)CC(Cc2cc(C)cc(C)c2)C(=O)O)cc1 (centres undefined), the solubility kinetic is reported as over 53.3 µg/mL.
In the case of c1ccc(N2CCN(Cc3nc4ccccc4[nH]3)CC2)nc1, the solubility kinetic is reported as 41.3 µg/mL (≈ 141 µM).
Work on CCCCc1nc2ccc(S(=O)(=O)O)cc2[nH]1 yielded a solubility kinetic of 31.4 µg/mL (≈ 123 µM).
CCc1cccc(C)c1NC(=O)COC(=O)CSCc1ccccc1 gave a solubility kinetic of 13.7 µg/mL (≈ 38.3 µM).
For CCCC(=O)NC(c1ccc(Cl)cc1)c1ccc2cccnc2c1O (centres undefined), the solubility kinetic was 0.4 µg/mL (≈ 1.13 µM).
With COc1cccc(NC(=O)c2nc(SC)ncc2Cl)c1 the solubility kinetic was 2.4 µg/mL (≈ 7.75 µM).
CC(=O)c1sc(NC(=O)c2ccc3c(c2)OCO3)nc1C gave a solubility kinetic of 0.9 µg/mL (≈ 2.96 µM).
O=C(COC(=O)c1cnccn1)Nc1cccc(F)c1 gave a solubility kinetic of over 41.3 µg/mL.
Work on CCCCn1c(=O)c(C(=O)Nc2ccccc2N)c(O)c2ccccc21 yielded a solubility kinetic of under 0.3 µg/mL.
For Cc1ccc(-n2c(SCC(=O)N(C)C3CCS(=O)(=O)C3)nc3ccccc3c2=O)c(C)c1 (centres undefined), the solubility kinetic was over 70.7 µg/mL.
COc1ccc(NC(=O)NC2CCCCCCC2)cc1 gave a solubility kinetic of 2.5 µg/mL (≈ 9.05 µM).
S=C(NCC1CCCO1)NC1CC1 (centres undefined) gave a solubility kinetic of over 30 µg/mL.
COc1ccc2c(c1)C1OCCC1C(c1ccco1)N2 (centres undefined) gave a solubility kinetic of over 40.7 µg/mL.
In the case of Cc1onc(-c2c(F)cccc2Cl)c1C(=O)c1ccc(F)cc1, the solubility kinetic is reported as 9.1 µg/mL (≈ 27.3 µM).
CC(C)CCSc1cc(NCCO)c([N+](=O)[O-])c2nonc12 gave a solubility kinetic of 10 µg/mL (≈ 30.6 µM).
Compound N#Cc1cccc(C#N)c1Oc1ccc(S(=O)(=O)Nc2ccccc2)cc1 has a solubility kinetic of 18.4 µg/mL (≈ 49 µM).
In the case of CC(=O)c1ccc(NC(=O)C[n+]2ccccc2)cc1.[Cl-], the solubility kinetic is reported as over 43.6 µg/mL.
CC1CCN(C(=O)COC(=O)/C=C/c2ccco2)CC1 gave a solubility kinetic of over 41.6 µg/mL.
Compound NCCS(=O)(=O)O has a solubility kinetic of 1.2 µg/mL (≈ 9.59 µM).
Work on CN1CCN(C(=S)c2cn(Cc3ccccc3)c3ccccc23)CC1 yielded a solubility kinetic of 30.8 µg/mL (≈ 88.1 µM).
With O=C(NS(=O)(=O)c1ccc(Cl)cc1)c1ccccc1 the solubility kinetic was 26.7 µg/mL (≈ 90.3 µM).
Compound CCOC(=O)c1ccc(-n2c(CC)nc3ccccc3c2=O)cc1 has a solubility kinetic of 1.4 µg/mL (≈ 4.34 µM).
O=S(=O)(NCCc1ccccn1)c1ccc(OC(F)(F)F)cc1 showed a solubility kinetic of 51.9 µg/mL (≈ 150 µM).
O=C(OCCN1CCOCC1)c1ccc(O)cc1 gave a solubility kinetic of over 37.7 µg/mL.
Cc1ccc(SCC(=O)NCCCc2ccccc2)cc1 showed a solubility kinetic of 5.7 µg/mL (≈ 19 µM).
Cc1ccc(C)c(S(=O)(=O)N2CCN(C(=O)c3cccnc3)CC2)c1 showed a solubility kinetic of 50.8 µg/mL (≈ 141 µM).
With Cc1ccccc1-n1c2nc(=O)n(C)c(=O)c-2cc2ccccc21 the solubility kinetic was over 47.6 µg/mL.
CCOC(=O)CSc1nc(-c2ccccc2)nc2ccc(C)cc12 gave a solubility kinetic of under 0.4 µg/mL.
With CCC(CC)NC(=O)c1cccc(Br)c1 the solubility kinetic was 38.1 µg/mL (≈ 141 µM).
With Cc1cc(S(=O)(=O)NCc2ccc3c(c2)OCO3)ccc1F the solubility kinetic was 46.8 µg/mL (≈ 145 µM).
OC1CCNC(=S)N1c1ccccc1 (centres undefined) showed a solubility kinetic of 30.7 µg/mL (≈ 147 µM).
Compound C=CCSc1ncccc1C(=O)NCCc1ccc(Cl)cc1 has a solubility kinetic of 3.6 µg/mL (≈ 10.8 µM).
Cl.O=S(=O)(CCC1CCCCN1)c1ccccc1 (centres undefined) showed a solubility kinetic of over 43.5 µg/mL.
Work on Cc1ccc(S(=O)(=O)CC(O)COc2ccc(C#N)cc2)cc1 (centres undefined) yielded a solubility kinetic of over 49.7 µg/mL.
In the case of O=[N+]([O-])c1cccc(S(=O)(=O)N2CN(c3ccc(Br)cc3)c3nc4ccccc4nc32)c1, the solubility kinetic is reported as 1.6 µg/mL (≈ 3.12 µM).
CC(C)(C)CC(=O)N1CCN(Cc2ccc3c(c2)OCO3)CC1 showed a solubility kinetic of over 47.8 µg/mL.
With Cc1ccccc1NC(=O)CON=C(N)c1ccccc1 the solubility kinetic was over 42.5 µg/mL.
O=C(COC(=O)/C=C/c1cccc([N+](=O)[O-])c1)Nc1cccnc1Cl showed a solubility kinetic of 2.1 µg/mL (≈ 5.81 µM).
In the case of COCCNc1nc(N)c([N+](=O)[O-])c(N2CCCCCC2)n1, the solubility kinetic is reported as 6.3 µg/mL (≈ 20.3 µM).
CC(=O)c1ccc(-c2ccc(C(=O)NCC(c3ccco3)N(C)C)o2)cc1 (centres undefined) gave a solubility kinetic of over 55 µg/mL.
COc1ccc(C(CCNCc2ccc(OC)c(OC)c2)c2ccc(F)cc2)cc1 (centres undefined) showed a solubility kinetic of over 61.4 µg/mL.
